Measurements taken from patent US20230310464A1, “USE OF C[…] THE TREATMENT OF SEIZURES ASSOCIATED WITH RARE […] SYNDROMES RELATED TO BRAIN INJURY” (GW Research Limited, priority 2020, published 2023).

Tested on: seizures associated with hypoxic ischaemic encephalopathy (HIE) or anoxia at birth
Assay: Open label, expanded-access program: seizure frequency recorded by caregivers in a diary, relative to baseline
Assay type: in vivo, human
Parameters: reduction in tonic seizures over the treatment period / reduction in spasms over the treatment period / reduction in absence seizures over the treatment period / reduction in tonic-clonic seizures over the treatment period / reduction in myoclonic seizures over the treatment period: concentration or dose not given beside the values; Seizure frequency, Tonic / Seizure frequency, Spasm / Seizure frequency, Absence / Seizure frequency, Tonic-clonic / Seizure frequency, Focal with impairment / Seizure frequency, Atonic / Seizure frequency, Focal without impairment / Seizure frequency, Focal secondary generalisation / Seizure frequency, Myoclonic: unit not given here
Procedure: Subjects were required to be on one or more AEDs at stable doses for a minimum of two weeks prior to baseline and to have stable vagus nerve stimulation (VNS) settings and ketogenic diet ratios for a minimum of four weeks prior to baseline.
Dose was then increased weekly by 5 mg/kg/day to a goal of 20 to 25 mg/kg/day.
Modifications were made to concomitant AEDs as per clinical indication.
Seizure frequency, intensity, and duration were recorded by caregivers in a diary during a baseline period of at least 28 days. Changes in seizure frequency relative to baseline were calculated after at least 2 weeks and at defined timepoints of treatment.
Patients may be defined as responders if they had more than 50% reduction in seizure frequency compared to baseline. The percent change in seizure frequency was calculated as follows: […]
The percent change of seizure frequency may be calculated for any time interval where seizure number has been recorded. For the purpose of this example the percent change of seizure frequency for the end of the treatment period was calculated as follows: […]

[1] = Patient 1, 2 weeks, CBD 8.3 mg/kg/day
[2] = Patient 1, 4 weeks, CBD 20.8 mg/kg/day
[3] = Patient 1, 8 weeks, CBD 25.2 mg/kg/day
[4] = Patient 1, 16 weeks, CBD 23.4 mg/kg/day
[5] = Patient 1, 24 weeks, CBD 22.9 mg/kg/day
[6] = Patient 1, 36 weeks, CBD 25.7 mg/kg/day
[7] = Patient 1, 48 weeks, CBD 21.8 mg/kg/day
[8] = Patient 1, treated for 48 weeks, vs baseline
[9] = Patient 2, 4 weeks, CBD 20.0 mg/kg/day
[10] = Patient 2, 8 weeks, CBD 25.0 mg/kg/day
[11] = Patient 2, 16 weeks, CBD 25.0 mg/kg/day
[12] = Patient 2, 24 weeks, CBD 25.0 mg/kg/day
[13] = Patient 2, 36 weeks, CBD 25.0 mg/kg/day
[14] = Patient 2, 48 weeks, CBD 25.0 mg/kg/day
[15] = Patient 2, 60 weeks, CBD 25.0 mg/kg/day
[16] = Patient 2, 72 weeks, CBD 25.0 mg/kg/day
[17] = Patient 2, 84 weeks, CBD 25.0 mg/kg/day
[18] = Patient 2, treated for 84 weeks, vs baseline
[19] = Patient 3, 4 weeks, CBD 5.0 mg/kg/day
[20] = Patient 3, 8 weeks, CBD 20.0 mg/kg/day
[21] = Patient 3, 12 weeks, CBD 25.0 mg/kg/day
[22] = Patient 3, 16 weeks, CBD 25.0 mg/kg/day
[23] = Patient 3, 24 weeks, CBD 30.0 mg/kg/day
[24] = Patient 3, 36 weeks, CBD 40.0 mg/kg/day
[25] = Patient 3, 48 weeks, CBD 50.0 mg/kg/day
[26] = Patient 3, 72 weeks, CBD 50.0 mg/kg/day
[27] = Patient 3, 84 weeks, CBD 50.0 mg/kg/day
[28] = Patient 3, 96 weeks, CBD 50.0 mg/kg/day
[29] = Patient 3, 108 weeks, CBD 50.0 mg/kg/day
[30] = Patient 3, 120 weeks, CBD 50.0 mg/kg/day
[31] = Patient 3, 132 weeks, CBD 50.0 mg/kg/day
[32] = Patient 4, 4 weeks, CBD 5.0 mg/kg/day
[33] = Patient 4, 8 weeks, CBD 5.0 mg/kg/day
[34] = Patient 4, 12 weeks, CBD 10.0 mg/kg/day
[35] = Patient 4, 24 weeks, CBD 15.0 mg/kg/day
[36] = Patient 4, 36 weeks, CBD 15.0 mg/kg/day

Structure (SMILES): C=C(C)[C@@H]1CCC(C)=C[C@H]1c1c(O)cc(CCCCC)cc1O [CBD, cannabidiol]
- Seizure frequency, Spasm [1]: 108.0
- Seizure frequency, Tonic [1]: 1044.0
- Seizure frequency, Spasm [2]: 102.8
- Seizure frequency, Tonic [2]: 904.0
- Seizure frequency, Spasm [3]: 50.8
- Seizure frequency, Tonic [3]: 770.0
- Seizure frequency, Spasm [4]: 78.0
- Seizure frequency, Tonic [4]: 764.8
- Seizure frequency, Spasm [5]: 48.0
- Seizure frequency, Tonic [5]: 917.2
- Seizure frequency, Spasm [6]: 51.2
- Seizure frequency, Tonic [6]: 634.0
- Seizure frequency, Spasm [7]: 69.2
- Seizure frequency, Tonic [7]: 424.8
- reduction in spasms over the treatment period [8]: 44.2%
- reduction in tonic seizures over the treatment period [8]: 59.8%
- Seizure frequency, Absence [9]: 52.0
- Seizure frequency, Spasm [9]: 440.0
- Seizure frequency, Absence [10]: 52.0
- Seizure frequency, Spasm [10]: 600.0
- Seizure frequency, Absence [11]: 12.0
- Seizure frequency, Spasm [11]: 632.0
- Seizure frequency, Absence [12]: 24.0
- Seizure frequency, Spasm [12]: 580.0
- Seizure frequency, Absence [13]: 0
- Seizure frequency, Spasm [13]: 560.0
- Seizure frequency, Absence [14]: 0
- Seizure frequency, Spasm [14]: 490.0
- Seizure frequency, Absence [15]: 0
- Seizure frequency, Spasm [15]: 196.0
- Seizure frequency, Absence [16]: 0
- Seizure frequency, Spasm [16]: 300.0
- Seizure frequency, Absence [17]: 0
- Seizure frequency, Spasm [17]: 340.0
- reduction in absence seizures over the treatment period [18]: 100%
- reduction in spasms over the treatment period [18]: 41.4%
- Seizure frequency, Focal with impairment [19]: 43.0
- Seizure frequency, Tonic [19]: 193.0
- Seizure frequency, Tonic-clonic [19]: 2.0
- Seizure frequency, Focal with impairment [20]: 132.0
- Seizure frequency, Tonic [20]: 132.0
- Seizure frequency, Tonic-clonic [20]: 0
- Seizure frequency, Focal with impairment [21]: 38.0
- Seizure frequency, Tonic [21]: 123.0
- Seizure frequency, Tonic-clonic [21]: 0
- Seizure frequency, Focal with impairment [22]: 46.0
- Seizure frequency, Tonic [22]: 120.0
- Seizure frequency, Tonic-clonic [22]: 6.0
- Seizure frequency, Focal with impairment [23]: 51.2
- Seizure frequency, Tonic [23]: 122.0
- Seizure frequency, Tonic-clonic [23]: 4.8
- Seizure frequency, Tonic [24]: 124.8
- Seizure frequency, Tonic-clonic [24]: 20.0
- Seizure frequency, Focal with impairment [25]: 38.8
- Seizure frequency, Tonic [25]: 136.0
- Seizure frequency, Tonic-clonic [25]: 11.2
- Seizure frequency, Focal with impairment [26]: 53.0
- Seizure frequency, Tonic [26]: 94.7
- Seizure frequency, Tonic-clonic [26]: 4.0
- Seizure frequency, Focal with impairment [27]: 53.0
- Seizure frequency, Tonic [27]: 72.0
- Seizure frequency, Tonic-clonic [27]: 5.7
- Seizure frequency, Focal with impairment [28]: 46.3
- Seizure frequency, Tonic [28]: 70.0
- Seizure frequency, Tonic-clonic [28]: 11.6
- Seizure frequency, Focal with impairment [29]: 46.4
- Seizure frequency, Tonic [29]: 35.0
- Seizure frequency, Tonic-clonic [29]: 10.4
- Seizure frequency, Focal with impairment [30]: 62.8
- Seizure frequency, Tonic [30]: 46.8
- Seizure frequency, Tonic-clonic [30]: 9.8
- Seizure frequency, Focal with impairment [31]: 77.2
- Seizure frequency, Tonic [31]: 54.4
- Seizure frequency, Tonic-clonic [31]: 12.0
- Seizure frequency, Atonic [32]: 0
- Seizure frequency, Tonic [32]: 4.0
- Seizure frequency, Tonic-clonic [32]: 13.0
- Seizure frequency, Atonic [33]: 0
- Seizure frequency, Tonic [33]: 3.0
- Seizure frequency, Tonic-clonic [33]: 18.0
- Seizure frequency, Atonic [34]: 0
- Seizure frequency, Tonic [34]: 0
- Seizure frequency, Tonic-clonic [34]: 10.0
- Seizure frequency, Atonic [35]: 6.0
- Seizure frequency, Tonic [35]: 0
- Seizure frequency, Tonic-clonic [35]: 0.6
- Seizure frequency, Atonic [36]: 1.7
- Seizure frequency, Tonic [36]: 0
